According to patent publication US6288091A, “Antiherpes virus compounds and methods for their preparation and use” (Boehringer Ingelheim Ltd., priority 1999, dated 2001):
Where two headings read alike, the source gives them in different places.

Legend:
HSV-1 strain F or KOS = assay: Inhibition of herpes simplex virus (HSV-1) replication in cell culture (BHK-21 cells, glycoprotein C ELISA); assay type: cell-based
In short: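 BHK-21 clone 13 cells infected with HSV-1 F or KOS at MOI 0.05 PFU/cell for 1 h at 37°, washed, then treated with compound in α-MEM/2% FBS for 24 h. Late glycoprotein C quantified by ELISA (mAb C11, HRP/OPD, 450 nm); EC50 from % inhibition.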

HCMV (strain AD169) [1] = assay: Inhibition of HCMV replication, plaque reduction assay (PRA, Hs-68 cells); assay type: cell-based, Human Cytomegalovirus (HCMV); settings: read-out: PRA CMV EC50
Method: (§1) C) Inhibition of Human Cytomegalovirus (HCMV) Replication
(§2) The effect of compounds on the replication of HCMV has been measured by using an ELISA-based assay (ELISA) and a plaque reduction assay (PRA).
(§3) Hs-68 cells (ATCC # CRL 1635) were seeded in 12-well plates at 83,000 cells/well in 1 mL of DMEM medium (Gibco Canada Inc.) supplemented with 10% fetal bovine serum (FBS, Gibco Canada Inc.). The plates were incubated for 3 days at 37° to allow the cells to reach 80-90% confluency prior to the assay.
(§4) The medium was removed from the cells by aspiration. The cells were then infected with approximately 50 PFU of HCMV (strain AD169, ATCC VR-538) in DMEM medium supplemented with 5% inactivated FBS (assay medium). The virus was allowed to adsorb to cells for 2 h at 37°. Following viral adsorption, the medium was removed from the wells by aspiration. The cells were then incubated with or without 1 mL of appropriate concentrations of test reagent in assay medium. After 4 days of incubation at 37°, the medium was exchanged with fresh medium containing test compound and 4 days later the cells were fixed with 1% aqueous formaldehyde and stained with a 2% crystal violet solution in 20% ethanol in water. Microscopic plaques were counted using a stereomicroscope. Drug effects were calculated as a percent reduction in the number of plaques in the presence of each drug concentration compared to the number observed in the absence of drug. Ganciclovir was used as a positive control in all experiments.
(§5) The EC50 values obtained according to this assay for certain thiazolyl derivatives of this invention are listed in the following tables under the heading PRA CMV.

HCMV (strain AD169) [2] = assay: Inhibition of HCMV replication, ELISA assay (Hs-68 cells); assay type: cell-based, Human Cytomegalovirus (HCMV); settings: read-out: ELISA CMV EC50
Method: as §1, §2
as §3, with “96 well microtiter” for “12-well”, “10,000” for “83,000”, “100 μL” for “1 mL”
The medium was removed from wells by aspiration. The cells then were infected at a multiplicity of infection (MOI) of 0.01 PFU/cell with 50 μL of HCMV (strain AD169, ATCC VR-538) in DMEM medium supplemented with 5% heat inactivated FBS (assay medium). The virus was allowed to adsorb to cells for 2 h at 37°. Following viral adsorption, the medium was removed from the wells by aspiration. The cells were washed twice with 200 μL of assay medium to remove unabsorbed virus. The cells were then incubated with or without 100 μL of appropriate concentrations of test reagent in assay medium. After 8 days of incubation at 37°, the extent of viral replication was determined by an ELISA assay which detects the late structural protein p28 of HCMV.
Eight days after infection, the medium was aspirated from the wells. Non-specific binding sites were blocked by adding 200 μL of phosphate buffered saline containing 1% (w/v) bovine serum albumin (blocking buffer) to each well and incubating the plates for 30 min at room temperature. After removal of the blocking buffer by aspiration, the cells were fixed with 100 μL of cold ethanol-acetone solution (95:5) per well. The plates were placed at -20° for 30 min. The plates were washed 4 times with phosphate buffered saline containing 0.05% (v/v) polyoxyethylene sorbitan monolaurate (Tween®). Thereafter, 100 μL of mAb UL99 (Advanced Biotechnologies Inc., #13-130-100) recognizing HCMV protein p28 was added to each wells and plates were incubated for 2 h at room temperature. The plates were washed four times with 200 μL of the above-noted phosphate buffered saline/Tween-20® solution. The cells were then incubated with 100 μL of sheep anti-mouse IgGγ horseradish peroxidase conjugated for 2 h at room temperature. The plates were then washed four times with 200 μL of above-noted phosphate buffered saline/Tween-20® solution. Thereafter, 100 μL of ortho phenylenediamine dihydrochloride (OPD, Gibco Canada Inc.) solution was added to each well and the plates were agitated on a microplate shaker for 30 min in the dark. Color development was monitored at 450 nm using a microplate spectrophotometer.
The SAS program was used to calculate the % inhibition of viral replication and to generate EC50 values.
The EC50 values obtained according to this assay method for certain thiazolylphenyl derivatives of this invention are listed in the following tables under the heading ELISA CMV.

HSV-1 helicase-primase = biological target: T1, HSV-1 helicase-primase (Human herpesvirus 1, UniProt P10189+P10236); assay: HSV-1 DNA-dependent ATPase assay (inhibition of HSV-1 helicase-primase); assay type: biochemical
T1 construct: made in house; host or cells: Sf21 insect cells triply infected with recombinant baculoviruses (UL5, UL8, UL52)
In short: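 Holoenzyme (UL5/UL8/UL52) expressed in baculovirus-infected Sf21 cells and purified, used at 3 μg/mL with 4 mM ATP and 25 μM primed M13 ssDNA in HEPES pH 7.5, 5.5 mM MgCl2, 3.3% DMSO. Incubated 20 min at 34°. Released phosphate read by malachite green at 650 nm, and activity taken from net absorbance with versus without inhibitor.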

[3] = Inhibition of HCMV replication, plaque reduction assay (PRA, Hs-68 cells); assay type: cell-based, Human Cytomegalovirus (HCMV); settings: human, read-out: Cytotoxic at this concentration (footnote *, PRA CMV)
Method: as §1, §2, §3, §4, §5

[4] = Human betaherpesvirus 5, AD169, Hs68, Group 1 Table 6 entries
[5] = Human alphaherpesvirus 1, BHK-21, Group 2 Table 1 entries
[6] = Human betaherpesvirus 5, AD169, Hs68, Group 2 Table 1 entries
[7] = Human alphaherpesvirus 1, BHK-21, Group 1 Table 2 entries
[8] = Human betaherpesvirus 5, AD169, Hs68, Group 1 Table 2 entries
[9] = Human alphaherpesvirus 1, BHK-21, Group 1 Table 1 entries
[10] = Human betaherpesvirus 5, AD169, Hs68, Group 1 Table 1 entries

T1 sequence (P10192 whole entry): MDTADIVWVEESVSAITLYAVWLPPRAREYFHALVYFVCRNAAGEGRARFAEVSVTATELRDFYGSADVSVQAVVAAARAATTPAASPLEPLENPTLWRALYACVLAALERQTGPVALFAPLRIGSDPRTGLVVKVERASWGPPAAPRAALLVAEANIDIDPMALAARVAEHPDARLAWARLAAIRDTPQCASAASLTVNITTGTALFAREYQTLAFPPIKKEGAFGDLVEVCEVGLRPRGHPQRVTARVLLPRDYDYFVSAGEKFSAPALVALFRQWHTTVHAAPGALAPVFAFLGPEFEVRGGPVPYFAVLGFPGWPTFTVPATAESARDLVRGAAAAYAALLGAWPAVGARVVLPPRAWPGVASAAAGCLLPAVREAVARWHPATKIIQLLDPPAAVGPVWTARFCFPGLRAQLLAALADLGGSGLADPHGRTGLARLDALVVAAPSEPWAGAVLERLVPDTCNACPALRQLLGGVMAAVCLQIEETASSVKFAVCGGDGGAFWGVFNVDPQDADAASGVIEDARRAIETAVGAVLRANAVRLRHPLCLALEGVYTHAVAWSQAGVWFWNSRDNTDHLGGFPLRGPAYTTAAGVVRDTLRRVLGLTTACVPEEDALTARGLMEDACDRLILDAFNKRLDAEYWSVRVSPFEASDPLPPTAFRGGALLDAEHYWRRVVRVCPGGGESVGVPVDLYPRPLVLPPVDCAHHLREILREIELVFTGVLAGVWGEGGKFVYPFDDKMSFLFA
T1 sequence (P10236 whole entry): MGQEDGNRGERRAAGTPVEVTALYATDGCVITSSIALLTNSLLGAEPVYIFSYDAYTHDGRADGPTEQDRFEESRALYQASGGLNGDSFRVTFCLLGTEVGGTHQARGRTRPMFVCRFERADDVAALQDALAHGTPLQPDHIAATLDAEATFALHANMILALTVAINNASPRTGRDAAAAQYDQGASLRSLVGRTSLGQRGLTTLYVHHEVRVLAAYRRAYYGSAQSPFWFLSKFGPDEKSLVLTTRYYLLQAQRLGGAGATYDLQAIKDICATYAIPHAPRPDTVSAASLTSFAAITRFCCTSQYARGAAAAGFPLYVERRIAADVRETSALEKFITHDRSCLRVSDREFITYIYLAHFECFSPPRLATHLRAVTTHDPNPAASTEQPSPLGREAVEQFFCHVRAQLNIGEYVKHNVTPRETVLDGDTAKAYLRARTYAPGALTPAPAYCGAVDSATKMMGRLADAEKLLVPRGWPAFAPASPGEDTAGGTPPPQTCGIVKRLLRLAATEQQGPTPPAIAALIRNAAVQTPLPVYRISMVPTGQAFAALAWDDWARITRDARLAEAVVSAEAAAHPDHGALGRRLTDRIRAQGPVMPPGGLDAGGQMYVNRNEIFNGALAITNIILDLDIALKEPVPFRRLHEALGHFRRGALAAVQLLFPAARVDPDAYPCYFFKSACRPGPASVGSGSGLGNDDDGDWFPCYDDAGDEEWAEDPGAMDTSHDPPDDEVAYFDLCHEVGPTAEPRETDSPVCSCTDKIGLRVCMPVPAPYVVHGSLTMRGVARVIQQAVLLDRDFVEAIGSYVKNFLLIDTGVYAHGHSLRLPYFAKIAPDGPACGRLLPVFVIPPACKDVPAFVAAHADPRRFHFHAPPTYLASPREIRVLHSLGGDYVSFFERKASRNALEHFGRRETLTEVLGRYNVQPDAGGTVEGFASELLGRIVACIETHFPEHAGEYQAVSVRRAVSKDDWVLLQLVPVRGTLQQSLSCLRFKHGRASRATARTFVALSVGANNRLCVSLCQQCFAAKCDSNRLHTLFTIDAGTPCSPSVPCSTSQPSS
T1 sequence (P10189 whole entry): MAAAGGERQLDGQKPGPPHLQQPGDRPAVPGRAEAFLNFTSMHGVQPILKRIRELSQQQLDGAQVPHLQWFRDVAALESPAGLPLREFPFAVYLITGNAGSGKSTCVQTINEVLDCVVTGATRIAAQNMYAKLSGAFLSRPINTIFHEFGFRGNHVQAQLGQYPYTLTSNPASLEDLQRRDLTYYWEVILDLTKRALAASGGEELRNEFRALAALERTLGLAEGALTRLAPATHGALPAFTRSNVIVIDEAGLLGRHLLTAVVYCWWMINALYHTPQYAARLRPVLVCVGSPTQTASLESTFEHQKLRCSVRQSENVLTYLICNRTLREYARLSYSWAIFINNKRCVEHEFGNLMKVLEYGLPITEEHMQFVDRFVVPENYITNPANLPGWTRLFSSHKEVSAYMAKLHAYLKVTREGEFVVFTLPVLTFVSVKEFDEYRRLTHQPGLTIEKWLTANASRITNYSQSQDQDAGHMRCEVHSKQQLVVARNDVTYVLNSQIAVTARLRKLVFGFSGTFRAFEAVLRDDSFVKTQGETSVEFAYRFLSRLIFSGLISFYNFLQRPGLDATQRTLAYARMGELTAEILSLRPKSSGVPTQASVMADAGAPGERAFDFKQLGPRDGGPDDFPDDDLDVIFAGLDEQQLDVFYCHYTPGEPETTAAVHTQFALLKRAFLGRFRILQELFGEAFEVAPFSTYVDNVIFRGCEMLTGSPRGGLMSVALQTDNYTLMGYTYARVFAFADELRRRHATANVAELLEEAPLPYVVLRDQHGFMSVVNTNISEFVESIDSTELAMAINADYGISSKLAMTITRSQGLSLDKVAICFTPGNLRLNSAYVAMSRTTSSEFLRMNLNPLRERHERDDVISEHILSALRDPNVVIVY

Row | SMILES | IC50 (HSV-1 helicase-primase; Group 1 Table 1 entries) | EC50 (HSV-1 strain F or KOS; [9]) | EC50 (HCMV (strain AD169) [2]; [10]) | also measured
1 | Nc1nc(-c2ccc(NC(=O)[C@H]3CCC(=O)N3Cc3ccccc3)cc2)cs1 [Example 1] | – | – | – | EC50 (HSV-1 strain F or KOS; Human alphaherpesvirus 1, BHK-21, Group 1 Table 6 entries): 3400 nM; EC50 (HCMV (strain AD169) [1]; [4]): 80000 nM; EC50 (HCMV (strain AD169) [2]; [4]): 250 nM
2 | CCCCNC(=O)Nc1ccc(-c2csc(N)n2)cc1 [Example 2] | – | – | – | EC50 (HSV-1 strain F or KOS; [5]): 3500 nM; EC50 (HCMV (strain AD169) [1]; [6]): 12000 nM; EC50 (HCMV (strain AD169) [2]; [6]): 600 nM
3 | CN(CCc1ccccn1)C(=O)[C@H](Cc1ccccc1)NC(=O)Nc1ccc(-c2csc(N)n2)cc1 [Example 9] | – | – | – | EC50 (HSV-1 strain F or KOS; [5]): 2900 nM; EC50 (HCMV (strain AD169) [1]; [6]): 36000 nM; EC50 (HCMV (strain AD169) [2]; [6]): 4100 nM
4 | Nc1nc(-c2ccc(NC(=O)CCNC3CCc4ccccc43)cc2)cs1 (centres unmarked) [Example 9] | – | – | – | EC50 (HSV-1 strain F or KOS; [7]): 950 nM; EC50 (HCMV (strain AD169) [1]; [8]): > 10400 nM; EC50 (HCMV (strain AD169) [2]; [8]): 6000 nM
5 | Nc1nc(-c2ccc(NC(=O)NCCCn3ccnc3)cc2)cs1 [Example 10] | – | – | – | IC50 (HSV-1 helicase-primase; Group 2 Table 1 entries): 4700 nM; MCC at 192 h ([3]; Group 2 Table 1 entries): 48 µM; EC50 (HCMV (strain AD169) [1]; [6]): > 48000 nM
6 | Nc1nc(-c2ccc(NC(=O)CCN(C(=O)c3cccnc3)C3CCc4ccccc43)cc2)cs1 (centres unmarked) [Example 11] | – | – | – | EC50 (HSV-1 strain F or KOS; [7]): 4000 nM; EC50 (HCMV (strain AD169) [1]; [8]): 20000 nM; EC50 (HCMV (strain AD169) [2]; [8]): 15000 nM
7 | Nc1nc(-c2ccc(NC(=O)NCCN(Cc3ccccc3)Cc3ccccc3)cc2)cs1 [Example 16] | – | – | – | IC50 (HSV-1 helicase-primase; Group 2 Table 1 entries): 1600 nM; MCC at 192 h ([3]; Group 2 Table 1 entries): 5 µM; EC50 (HCMV (strain AD169) [1]; [6]): > 5000 nM
8 | Nc1nc(-c2ccc(NC(=O)NCc3ccccc3)cc2)cs1 [Example 20] | – | – | – | IC50 (HSV-1 helicase-primase; Group 2 Table 1 entries): 900 nM; MCC at 192 h ([3]; Group 2 Table 1 entries): 45 µM; EC50 (HCMV (strain AD169) [1]; [6]): > 45000 nM
9 | Nc1nc(-c2ccc(NC(=O)CN(Cc3ccncc3)C(=O)c3ccc(F)cc3)cc2)cs1 [Example 73] | 88 nM | 17 nM | 12600 nM | –
10 | Nc1nc(-c2ccc(NC(=O)CN(CC3CCCCC3)C(=O)CC3CCCCC3)cc2)cs1 [Example 76] | 80 nM | 160 nM | 25000 nM | –
11 | COC(=O)N(CC(=O)Nc1ccc(-c2csc(N)n2)cc1)Cc1ccccc1 [Example 87] | 2800 nM | 1100 nM | 18000 nM | –
12 | C[C@H](c1ccccc1)N(CC(=O)Nc1ccc(-c2csc(N)n2)cc1)C(=O)OC(C)(C)C [Example 88] | 2400 nM | 1200 nM | > 47000 nM | –
13 | CC(C)(C)OC(=O)N(CC(=O)Nc1ccc(-c2csc(N)n2)cc1)Cc1ccc(Cl)cc1 [Example 91] | 70 nM | 25 nM | 1600 nM | –
14 | CN(C)c1cccc2c(S(=O)(=O)N(CC(=O)Nc3ccc(-c4csc(N)n4)cc3)Cc3ccccc3)cccc12 [Example 98] | 500 nM | 2100 nM | > 2000 nM | –
15 | CC(C)(C)OC(=O)N(CCc1ccccn1)CC(=O)Nc1ccc(-c2csc(N)n2)cc1 [Example 101] | 2200 nM | 740 nM | 1900 nM | –
16 | Nc1nc(-c2ccc(NC(=O)CN(CCC3CCCCC3)C(=O)C3CCCCC3)cc2)cs1 [Example 103] | 150 nM | 240 nM | > 41000 nM | –
17 | CN(C)S(=O)(=O)N(CC(=O)Nc1ccc(-c2csc(N)n2)cc1)Cc1ccccc1 [Example 106] | 1000 nM | 160 nM | > 6000 nM | –
18 | Nc1nc(-c2ccc(NC(=O)CN(CC3CCCCC3)S(=O)(=O)N3CCOCC3)cc2)cs1 [Example 107] | – | 830 nM | – | MCC at 192 h ([3]; Group 1 Table 1 entries): 12 µM
19 | Nc1nc(-c2ccc(NC(=O)CN(Cc3ccccc3)C(=O)OCc3ccccc3)cc2)cs1 [Example 109] | 310 nM | 200 nM | > 20000 nM | –
20 | CC(C)CN(CC(=O)Nc1ccc(-c2csc(N)n2)cc1)C(=O)OCc1ccccc1 [Example 110] | 3200 nM | 1600 nM | > 40000 nM | –
21 | CCCC(CCC)N(CC(=O)Nc1ccc(-c2csc(N)n2)cc1)C(=O)OCc1ccccc1 [Example 141] | 4000 nM | 3500 nM | > 121000 nM | –
22 | CC(C)(C)CN(CC(=O)Nc1ccc(-c2csc(N)n2)cc1)C(=O)OC(C)(C)C [Example 142] | 6300 nM | 2400 nM | 4000 nM | –
23 | Nc1nc(-c2ccc(NC(=O)CN(Cc3ccccc3)S(=O)(=O)NCc3ccccc3)cc2)cs1 [Example 143] | 800 nM | 1000 nM | > 64000 nM | –
